From US8957087B2, “Heterocyclic substituted acardite derivate and application thereof” (Jiangsu Provincial Institute of Materia Medica Co., Ltd., priority 2009, dated 2015)
“And” between values parts separate entries of the source, which are not always exact repeats. Equal entries are not always repeated. Where two headings read alike, the source gives them in different places. Marks after values point to notes of the source that are not given here.

Experiments:
Raf-1(truncated) = experiment: Raf-1 inhibitor screening by chemoluminescence method; assay type: biochemical; settings: Final concentration 1 x 1.0*10^−5 mol/ml
From the text: 1. Inhibitory activity of the compound of the present invention on raf kinase
Raf-1 inhibitor screening by chemoluminescence method
Westernblot electrophoresis apparatus Rotaryshaker
Raf-1(truncated), Magnesium/ATP Cocktail, MEK1 unactive

[1] = test system: human lung cancer cell strain A549; experiment: MTT assay, inhibition of growth of human lung cancer cell strain A549; assay type: cell-based
Protocol: 4. Using 3-(4,5-dimethylthiazol-2-yl)-2,5-diphenyl tetrazolium bromide assay (MTT) to detect the inhibition effects on the growth of human lung cancer cell strain A549
[Test materials] MTT working solution, F12 medium containing 10% FBS, continuous injectors
(§1) [Tested compound] Compounds 1-38
(§2) [Positive control medicine] Sorafenib, compounds A′, B′, C′ with no substituent or only amino formyl in A ring
The inhibition rate is calculated as follows:
(§3) Relative OD value of conrol well=OD value of control well−OD value of blank well
(§4) Relative OD value of drug well=OD value of drug well−OD value of blank well

[2] = test system: human high-metastic lung cancer cell 95D; experiment: Inhibition of human high-metastic lung cancer cell 95D migration (Boyden Chamber Transwell); assay type: cell-based; settings: Final concentration 1 x 1.0*10^(−5) mol/L
Protocol: 5 Inhibition effects of compounds on human high-metastic lung cancer cell 95D migration
[Test materials] Boyden Chamber Transwell chamber (with pore size of 8 μm), human high-metastic lung cancer cell 95D cell strain, 1640 medium containing 10% FBS, 1640 medium containing no serum
as §1, §2
(§5) The inhibition rate is calculated as follows: […]

lung cancer cell A549 = experiment: Effects on the adhesive ability of lung cancer cell A549; assay type: cell-based, human; settings: Final concentration 1 x 1.0*10^(−5) mol/L
Protocol: 6. Effects of tested compounds on the adhesive ability of lung cancer cell A549
[Test materials] gelatin, CCK8, poly-lysine (PLL), A549 cell stains, 1640 medium containing 10% FBS
(§6) [Tested compound] Compounds 1-38 to be tested
as §2, §5
Dosing dosing cells without cell group (gelatin adhesive OD/PLL adhesion OD)−Dosing cell group (gelatin adhesive OD/PLL adhesion OD value)
Dosing dosing cells without cell group (gelatin adhesive OD/PLL adhesion OD value)

[3] = test system: human umbilical vein endothelial cell HUVEC; experiment: Growth of human umbilical vein endothelial cell HUVEC by CCK8 method; assay type: cell-based; settings: Final concentration 1 x 1.0*10^(−5) mol/L
From the text: 7. Effects of tested compounds on the growth of human umbilical vein endothelial cell HUVEC cell by CCK8 method
[Test materials] CCK8, human umbilical vein endothelial cell HUVEC cell, 1640 medium containing 10% FBS
as §6, §2, §3, §4

[4] = test system: human umbilical vein endothelial cell HUVEC; experiment: Lumen formation ability of HUVEC (Matrigel method); assay type: cell-based; settings: Final concentration 1 x 1.0*10^(−5) mol/L
From the text: 8. Inhibition effects of compounds on the lumen formation ability of human umbilical vein endothelial cell HUVEC
[Experimental principles] The human umbilical vein endothelial cells have ability of spontaneously forming blood lumen on Matrigel, which can be used to simulate the process of angiogenesis in vivo. We used Matrigel method to investigate the effects of the compound on the lumen formation ability of human umbilical vein endothelial cell HUVEC.
[Test materials] HUVEC (taking generation 3 to 5 cells for experiments after obtained from primary separation and cultured at 37 under the conditions of 5% CO2), Matrigel, cell culture medium M199.
as §1, §2, §5

[5] = test system: human lung cancer A549 transplantation tumor; assay type: in vivo; settings: BALB/cA nude mice; 60 mg/kg, 6 times every week for 3 weeks; Sorafenib oral 60 mg/kg
Protocol: 9. Tumor inhibition rate of tested compounds on human lung cancer A549 cell transplantation model in nude mice
(§7) [Test animals] female BALB/cA nude mice, 35-40 days old, with weight of 18-22g. There were 12 mice in the negative conrol group and 6 mice in the treatment group.
(§8) The dosage of the compound was 60 mg/kg, 6 times every week for 3 weeks. […] Equal amount of normal saline was administrated in the negative control group. Observe for one week after administration.

[6] = test system: human liver cancer cell bel-7402 transplantation tumor; assay type: in vivo; settings: 60 mg/kg
Protocol: 10. Tumor inhibition rate of tested compounds on human liver cancer cell bel-7402 transplantation tumor model in nude mice
as §7, §8

[7] = test system: renal carcinoma cell line GCR-1 transplanted tumor; assay type: in vivo, BALB/cA nude mice; settings: BALB/cA nude mice; 60 mg/kg, 6 times every week for 3 weeks; Sorafenib oral 60 mg/kg
Protocol: 11. Tumor inhibition rate of medicines on renal carcinoma cell line GCR-1 transplanted tumor model in nude mice
as §7
[Test method] […] The dosage of the medicine was 60 mg/kg, 6 times every week for 3 weeks. […] Equal amount of normal saline was administrated in the negative control group. Observe for one week after administration.

mice S180 sarcoma = experiment: Experimental therapeutic action on S180 sarcoma mice; settings: for Tumor growth inhibition rate (%): mice S180 sarcoma, 60 mg/kg orally for 9 days
Protocol: Experimental therapeutic action of the compound in the present invention on S180 sarcoma mice
18-25 g female ICR mice and well grown 7-11 day old mice sarcoma S180 tumor seeds were selected, and the seeds were inoculated into the subcutaneous at the right axillary. After inoculated 24 hours, these mice were randomly divided into cages and orally administrated 60 mg/kg for 9 days. On 10 day, the animals were killed and weighed, and the tumor weights were weighed to calculate average tumor weight in each group, followed by calculating the tumor inhibition rate according to the following formula and T test.

[8] = test system: Human colon cancer HT-29 transplantable tumor; experiment: Human colon cancer HT-29 transplantable tumor in nude mice; settings: for Relative tumor reproduction rate T/C (%): HT-29 in nude mice
Protocol: Experimental therapeutic action of the compound in the present invention on Human colon cancer HT-29 transplantable tumor in nude mice.
Take eugenic tumor tissues and cut into about 1.5 mm^3, and then incoculate subcutaneously at the right armpit of nude mice under the sterile conditions. The diameter of the transplantable tumor in nude mice was determined with a vernier caliper, and the animals were divided into groups after the tumors were grown to 100-300 mm^3. Using the method of measuring the tumor diameter, dynamically observe the antitumor effects of tested materials. The diameter of the tumor was determined three times every week and the mouse weight was weighed at the same time. […] The solvent was intragastrically administrated as the control for continuous 9 times. Equal amount of control was administrated in the negative control group.
Tumor volume (TV) is calculated as: TV=½×a×b^2, wherein a and b respectively represent length and width.
Relative tumor volume (RTV) is calculated as: RTV=TVt/TV0, wherein TV0 is the tumor volume when administrated according to different cages and TVt is the tumor volume measured each time.
Relative tumor reproduction rate T/C (%) is calculated as follows:
TRTV: RTV in the treatment group; CRTV: RTV in the negative control group.
The test results used relative tumor reproduction rate T/C (%) as evaluating indicator of anti-tumor activity.

[9] = Final concentration 1 x 1.0*10^(−5) mol/L
[10] = BALB/cA nude mice, 6 times every week for 3 weeks, Sorafenib oral 60 mg/kg

Compound	Inhibition rate % on raf kinase (Raf-1(truncated)) [%]	Inhibition rate, growth of human lung cancer cell A549 [1, 9] [%]	Inhibition rate, 95D cell strain migration [2] [%]	Inhibition rate, adhesion ability of human lung cancer cell A549 (lung cancer cell A549) [%]	Inhibition rate, growth of HUVEC cell [3] [%]	Inhibition rate, lumen formation ability of HUVEC [4] [%]	Relative tumor reproduction rate T/C (%) on human lung cancer A549 transplantation tumor in nude mice [5] [%]	Relative tumor reproduction rate T/C (%) on human liver cancer cell bel-7402 transplantation tumor model in nude mice [6, 10] [%]	Relative tumor reproduction rate T/C (%) on human renal carcinoma GCR-1 cell transplanted tumor model in nude mice [7] [%]	Tumor growth inhibition rate (%) (mice S180 sarcoma)	Relative tumor reproduction rate T/C (%) ([8]; 60 mg/kg ig 9 times)	Inhibition rate, growth of human lung cancer cell A549 [1] [%]	other results
CNC(=O)c1cc(Oc2ccc(NC(=O)Nc3ccc(F)c(C(F)(F)F)c3)cc2)c2cc(OC)ccc2n1 [Compound 2]	61.1	61.11	85.17	75.15	13.11	75.14	35.3	35.4	23.2				Tumor weight x ± SD (mice S180 sarcoma; 60 mg/kg ig for 9 days, day 10): 0.87 ± 0.24 g; Tumor growth inhibition rate (%) (mice S180 sarcoma; 60 mg/kg): 46.0% and 24.1%; Weight (g) Start (mice S180 sarcoma; mouse body weight at start, 60 mg/kg ig): 18.9 ± 1.7 g; Weight (g) Final (mice S180 sarcoma; mouse body weight final, 60 mg/kg ig for 9 days): 20.9 ± 2.3 g; Relative tumor reproduction rate T/C (%) ([8]; 60 mg/kg ig 9 times, 60 mg/kg): 39.45%; Weight (g) d0 ([8]; nude mouse body weight d0, 60 mg/kg): 19.9 ± 0.8 g; Weight (g) d13 ([8]; nude mouse body weight d13, 60 mg/kg ig 9 times): 21.0 ± 0.8 g; RTV ([8]; relative tumor volume, 60 mg/kg ig 9 times): 2.00 ± 0.41; TV d0 ([8]; tumor volume d0, 60 mg/kg): 133 ± 23; TV d13 ([8]; tumor volume d13, 60 mg/kg ig 9 times): 265 ± 100
CNC(=O)c1nc(Oc2ccc(NC(=O)Nc3ccc(F)c(C(F)(F)F)c3)cc2)c2ccc(F)cc2n1 [Compound 5, N-(4-fluoro-3-(trifluoromethyl)phenyl)-N′-(4-(2-(N-methylaminoformoxyl)-4-(7 fluoroquinazolinyl)oxy)phenyl)urea]	98.9	93.50	97.51	87.58	8.50	87.50	11.6	15.7	11.2	49.3	38.24		
CNC(=O)c1nc(Oc2ccc(NC(=O)Nc3ccc(Br)c(C(F)(F)F)c3)cc2)c2ccc(F)cc2n1 [Compound 6, N-(4-bromo-3-(trifluoromethyl)phenyl)-N′-(4-(2-(N-methylaminoformoxyl)-4-(7 fluoroquinazolinyl)oxy)phenyl)urea]	80.1	92.50	93.71	93.59	7.50	90.55	15.9	19.5	12.5	51.2	39.58		
CNC(=O)c1ncc(Oc2ccc(NC(=O)Nc3ccc(Cl)c(C(F)(F)F)c3)cc2)c(OC)n1 [Compound 7, N-(4-chloro-3-(trifluoromethyl)phenyl)-N′-(4-(2-(N-methylaminoformoxyl)-5-(4-methoxypyrimidinyl)oxy)phenyl)urea]	99.1	45.30	89.34	68.34	8.30	60.34	39.3	34.2	21.2	21.5	40.1		
CNC(=O)c1ncc(Oc2ccc(NC(=O)Nc3ccc(F)c(C(F)(F)F)c3)cc2)c(OC)n1 [Compound 8, N-(4-fluoro-3-(trifluoromethyl)phenyl)-N′-(4-(2-(N-methylaminoformoxyl)-5-(4-methoxypyrimidinyl)oxy)phenyl)urea]		60.67	89.56	61.56	13.67	78.59	30.5	30.6	29.1	58.2	37.6		
O=C(Nc1ccc(Oc2ccnc3ccccc23)cc1)Nc1ccc(Cl)c(C(F)(F)F)c1 [Compound A′, reference compound]			63.51	71.55	23.11	60.51	43.2	37.2	34.2			58.51	
O=C(Nc1ccc(Oc2ccncn2)cc1)Nc1ccc(Cl)c(C(F)(F)F)c1 [Compound B′, reference compound]			61.60	69.26	31.64	61.62	40.4		30.4			61.62	Relative tumor reproduction rate T/C (%) on human liver cancer cell bel-7402 transplantation tumor model in nude mice ([6]; mouse, in vivo, po): 30.4%
N-(4-fluoro-3-(trifluoromethyl)phenyl)-N′-(4-(4-pyrryl)oxy)phenyl)urea [Compound C′, reference compound]			63.20	68.62	22.27	60.50	36.6	32.6	35.6			62.25	
